The test system of series [1] is smad2. Briefly: AAV6-GFP-U6-mSMAD2_shRNA treatment of Min6 cells, Western blot and RT-PCR. The class given is cell-based. Here is the method:
(§1) FIGS. 19A-19C. AAV6-GFP-U6-mSMAD2_shRNA treatment in vitro blocks smad2 expression in MIN6 and Beta-TC cell lines. […] Phospho smad2 expression is nearly absent in Min6 cells after AAV6-GFP-U6-mSMAD2_shRNA treatment (B). […] Similar experiments can be performed in human beta cell lines (EndoC-bH5, Human Cell Design) and primary human beta cells.
(§2) FIGS. 19A-19C show results from experiments where Min6 cells or beta-TC cells were treated with AAV6-GFP-U6-mSMAD2_shRNA for three days. A lysate was prepared from total or sorted cells. RT-PCR, and Western blot for Smad2, phospho Smad2 and Beta-actin was performed. […] Phospho smad2 expression is nearly absent in Min6 cells after AAV6-GFP-U6-mSMAD2_shRNA treatment (FIG. 19B).
A general note: In western blotting, separated proteins are transferred to a membrane and probed.

In series [2] the test system is smad2. The series can be described thus: AAV6-GFP-U6-mSMAD2_shRNA treatment of beta-TC cells, Western blot. The class given is cell-based. Particulars: beta-TC cells sorted after transfection, treated for three days, Western blot (FIG. 19A). Here is the method:
as §1, §2

Take “AAV6-GFP-U6-mSMAD2_shRNA: AAV6 construct with smad2 shRNA sequence SEQ ID NO: 34, targeting sequence SEQ ID NO: 35 (DNA CCGGTGGTGTTCAATCGCATACTATCTCGAGATAGTATGCGATTGAACACCATTTTTG)”: the smad2 expression entry is given as “near complete ablation” in the series on smad2 [1] (Min6 cells sorted after transfection, treated for three days, Western blot (FIG. 19A)) and “near complete ablation” in the series with smad2 [2]. In addition, the “Phospho smad2 expression” value in the series with smad2 [1] (Min6 cells, treated for three days, Western blot (FIG. 19B)) is reported as “nearly absent”. Further, in the series with smad2 [1] (sorted MIN6 cells, treated for three days (FIG. 19C)), the “RT-PCR quantification of MIN6 mRNA (smad2)” value is listed as “complete absence”.

Source of the values: US20240191226A1, “SMAD2 INHIBITION IN BETA CELLS FOR TYPE 2 DIABETES THERAPY” (University of Pittsburgh - Of the Commonwealth System of …, priority 2021, published 2024).
